Data taken from patent publication US7094801B2, “Chalcone derivatives and their use to treat diseases” (Atherogenics, Inc., priority 2001, dated 2006).

Key:
[1] = tested on: VCAM-1; assay: In Vitro VCAM-1 Assay (TNF-α stimulated HAEC or HPAEC, cell ELISA); assay type: cell-based, human; conditions: Homo sapiens, 16 h, TNF-α (1 ng/ml) stimulated HAEC or HPAEC, approximately 16 hours
Experimental: Cell Culture and compound dosing: Cultured primary human aortic (HAEC) or pulmonary (HPAEC) endothelial cells were obtained from Clonetics, Inc., and were used below passage 9. Cells were seeded in 96 well plates such that they would reach 90–95% confluency by the following day. On the following day the cells were stimulated with TNF-α (1 ng/ml) in the presence or absence of compounds dissolved in DMSO such that the final concentration of DMSO is 0.25% or less. To establish a dose curve for each compound, four concentrations in 2- to 5-fold increments were used. Cells were exposed to TNF-α and compounds for approximately 16 hours. The next day the cells were examined under microscope to score for visual signs of toxicity or cell stress.
Following 16 hr exposure to TNF-α and compound the media was discarded and the cells were washed once with Hanks Balanced Salt Solution (HBSS)/Phosphate buffered saline (PBS) (1:1). Primary antibodies against VCAM-1 (0.25 μg/ml in HBSS/PBS+5% FBS) were added and incubated for 30–60 minutes at 37° C. Cells were washed with HBSS/PBS three times, and secondary antibody Horse Radish Peroxidase (HRP)-conjugated goat anti-mouse IgG (1:500 in HBSS/PBS+5% FBS) were added and incubated for 30 minutes at 37° C. Cells were washed with HBSS/PBS four time and TMB substrate were added and incubated at room temperature in the dark until there was adequate development of blue color. The length of time of incubation was typically 5–15 minutes. 2N sulfuric acid was added to stop the color development and the data was collected by reading the absorbance on a BioRad ELISA plate reader at OD 450 nm. The results are expressed as IC50 values (the concentration (micromolar) of compound required to inhibit 50% of the maximal response of the control sample stimulated by TNF-α only).

Row | melting point | IC50 [1] [µM] | SMILES
1 | 120 to 122 °C | < 1 | COc1cc(OC)c(-c2cc3ccccc3n2C(=O)OC(C)(C)C)cc1/C=C/C(=O)c1ccc(S(N)(=O)=O)cc1 [Example 83, 2-{2,4-Dimethoxy-5-[3-oxo-3-(4-aminosulfonyl-phenyl)-E-propenyl]-phenyl}-indole-1-carboxylic acid tert-butyl ester]
2 | 213 to 215 °C | < 5 | COc1cc(OCc2c(C)noc2C)c(/C=C/C(=O)c2ccc(C(=O)O)cc2)cc1-c1cccs1 [Example 62, 4-{3E-[2-(3,5-Dimethyl-isoxazol-4-ylmethoxy)-4-methoxy-5-thiolphen-2-yl-phenyl]-acryloyl}-benzoic acid]
3 | 71 to 75 °C | < 1 | COc1cc(/C=C/C(=O)c2ccc(NS(C)(=O)=O)cc2)cc(-c2cccs2)c1OC [Example 14, N-{4-[3E-(3,4-Dimethoxy-5-thiophen-2-yl-phenyl)-acryloyl]-phenyl}-methanesulfonamide]
4 | 255 °C (dec.) | < 5 | COc1cc(OCn2nnc3ccccc32)c(/C=C/C(=O)c2ccc(S(N)(=O)=O)cc2)cc1-c1cccs1 [Example 115, 4-{3E-[2-(Benzotriazol-1-ylmethoxy)-4-methoxy-5-thiophen-2-yl-phenyl]-acryloyl}-benzenesulfonamide]
5 | 79 to 81 °C | < 10 | COc1ccc(/C=C/C(=O)c2ccccc2C(=O)O)cc1-c1cccs1 [Example 48, 2-[3E-(4-Methoxy-3-thiophen-2-yl-phenyl)-acryloyl]-benzoic acid]
6 | 195 to 196 °C | < 5 | COc1ccc(-c2cccs2)cc1/C=C/C(=O)c1ccc(C(=O)O)cc1 [Example 45, 4-[3E-(2-Methoxy-5-thiophen-2-yl-phenyl)-acryloyl]-benzoic acid]
7 | 228 to 229 °C | < 10 | COc1cc(OCC(=O)N(C)C)c(/C=C/C(=O)c2ccc(C(=O)O)cc2)cc1-c1cccs1 [Example 67, 4-[3E-(2-Dimethylcarbamoylmethoxy-4-methoxy-5-thiophen-2-yl-phenyl)-acryloyl]-benzoic acid]
8 | > 260 °C | < 5 | O=C(O)c1ccc(C(=O)/C=C/c2ccc(-c3cccs3)cc2)cc1 [Example 10, 4-[3E-(4-Thiophen-2-yl-phenyl)-acryloyl]-benzoic acid]
9 | 222 to 224 °C | > 10 | COc1cc(OC)c(-c2nc3cccnc3[nH]2)cc1/C=C/C(=O)c1ccc(C(=O)O)cc1 [Example 76, 4-{3E-[5-(3H-Imidazo[4,5-b]pyridin-2-yl)-2,4-dimethoxy-phenyl]-acryloyl}-benzoic acid]
10 | 218 °C (dec.) | > 10 | COc1cc(OC)c(-c2nn[nH]n2)cc1/C=C/C(=O)c1ccc(C(=O)O)cc1 [Example 75, 4-{3E-[2,4-Dimethoxy-5-(2H-tetrazol-5-yl)-phenyl]-acryloyl}-benzoic acid]
11 | 205 to 207 °C | < 5 | COc1cc(OC)c(-c2cccn2C(=O)OC(C)(C)C)cc1/C=C/C(=O)c1ccc(C(=O)O)cc1 [Example 57, 2-{5-[3-(4-Carboxy-phenyl)-3-oxo-E-propenyl]-2,4-dimethoxy-phenyl}-pyrrole-1-carboxylic acid tert-butyl ester]
12 | 67 to 71 °C | < 5 | COc1cc(/C=C/C(=O)c2ccc(N)cc2)cc(-c2cccs2)c1OC [Example 11, 1-(4-Amino-phenyl)-3E-(3,4-dimethoxy-5-thiophen-2-yl-phenyl)-propenone]
13 | 181 to 183 °C | > 10 | COc1cc(OC(C)(C)C(=O)O)c(-c2cccs2)cc1/C=C/C(=O)c1ccc(NS(C)(=O)=O)cc1 [Example 100, 2-{4-[3-(4-Methanesulfonylamino-phenyl)-3-oxo-E-propenyl]-5-methoxy-2-thiophen-2-yl-phenoxy}-2-methyl-propionic acid]
